Experiments:
Type in all cases: physicochemical
[1] = Absorption spectrum measured in solution (λmax, ε, slope width, solvatochromism)
Procedure: For a recordable optical data storage medium according to the invention which is recorded on and read using light from a blue laser, such heterocyclic azo dyes are preferred whose absorption maximum λmax2 is in the range from 420 to 550 nm, […] half the extinction value at λmax2, and the wavelength λ1/10, at which the extinction on the short-wavelength slope of the absorption maximum of the wavelength λmax2 is a tenth of the extinction value at λmax2, are preferably in each case no further than 80 nm away from each other.
For a recordable optical data storage medium according to the invention which is recorded on and read using light from a red laser, such heterocyclic azo dyes are preferred whose absorption maximum λmax2 is in the range from 500 to 650 nm, wherein the wavelength λ1/2 at which the extinction on the long-wavelength slope of the absorption maximum of the wavelength λmax2 is half the extinction value at λmax2, and the wavelength λ1/10, at which the extinction on the long-wavelength slope of the absorption maximum of the wavelength λmax2 is a tenth of the extinction value at λmax2, are preferably in each case no further than 60 nm away from each other.
At the absorption maximum λmax2 the heterocyclic azo dyes preferably have a molar extinction coefficient E of >25000 l/mol cm, preferably >35000 l/mol cm, particularly preferably >40000 l/mol cm and very particularly preferably >50000 l/mol cm.
The absorption spectra are, for example, measured in solution.
Suitable heterocyclic azo dyes having the required spectral properties are in particular those in which the change in the dipole moment Δμ=|μg−μag|, i.e. the positive difference between the dipole moments in the ground state and the first excited state is as small as possible, i.e. preferably <5 D, and particularly preferably <2 D. One method of determining such a change in the dipole moment Δμ is described for example in F. Würthner et al., Angew. Chem. 1997, 109, 2933 and in the literature cited therein. Low solvatochromism (dioxan/DMF) is also a suitable criterion for selection. Preferred heterocyclic azo dyes are those whose solvatochromism Δλ=|λDMFλdioxan|, i.e. the positive difference between the absorption wavelengths in the solvents dimethyl formamide and dioxan is <20 nm, particularly preferably <10 nm, and very particularly preferably <5 nm.

[2] = Film formation (morphology of the dye layer)
Text: In addition to the abovementioned optical properties, the recordable information layer consisting of light-absorbing organic substances must have a morphology which is as amorphous as possible, in order to keep the noise signal during recording or reading as small as possible. For this purpose it is particularly preferable, when applying the substances by spin-coating from a solution or by vapour deposition and/or sublimation, to prevent crystallization of the light-absorbing substances during the subsequent top-coating with metallic or dielectric layers in vacuo.

[3] = Solubility in TFP (2,2,3,3-tetrafluoropropanol)
Text: Solubility: >2% in TFP (2,2,3,3-tetrafluoropropanol)

With `CC(C)N(c1nnc(/N=N/c2cnc(N(C)C)s2)s1)C(C)C` [Example 1] the “λ1/2-λ1/10 (long-wave slope)” value ([1]; Example 1, long-wave slope) was 22 nm, the ε ([1]; Example 1, molar extinction coefficient at λmax) was 44140 L/mol/cm and the λmax ([1]; Example 1, solvent not given) was 496 nm. For the same compound, the “Δλ=|λDMF−λdioxan|” value ([1]; solvatochromism DMF vs dioxan) was 2 nm, the film [2] was “a glassy film” and the Solubility [3] was greater than 2%.
